Measurements from patent publication US20250304537A1 (Repare Therapeutics Inc., priority 2022, published 2025).

Biological target: recombinant human Myt1 (full length PKMYT1) (Homo sapiens (Human), UniProt Q99640)
Test: Recombinant human Myt1 kinase assay (ADP-Glo)
Type: biochemical
Conditions: 10 μM ATP
Method: Detection of Myt1 kinase activity utilized a recombinant human Myt1 kinase assay measuring the hydrolysis of ATP using a commercially available ADP-Glo Assay (ADP-Glo™ Kinase Assay from Promega, 10 000 assays, #V9102). Briefly, 5 μL recombinant human Myt1 (full length PKMYT1 recombinant human protein expressed in insect cells from Thermo Fisher #A33387; ˜80% purity) was prepared in reaction buffer (70 mM HEPES, 3 mM MgCl2, 3 mM MnCl2, 50 μg/ml PEG 20000, 3 μM Na-orthovanadate, 1.2 mM DTT) and added to 384 well white polystyrene, flat bottom well, non-treated, microplate (Corning #3572). After this, 5 μL of compounds (diluted in reaction buffer to 0.5% DMSO) was added to the microplate and the plate was spun briefly and incubated at 22° C. for 15 minutes. Ultra-Pure Adenosine Triphosphate (ATP) solution (ADP-Glo kit from Promega) was diluted in reaction buffer and 5 μL was added to the microplate, spun down briefly and incubated for 60 minutes at 30° C. The final Myt1 enzyme concentration was 18 nM and the final ATP concentration was 10 μM. After the 60-minute incubation, 15 μL of ADP-Glo reagent was added and the plate was spun briefly and sealed and incubated in the dark for 40 minutes at 22° C. Following this, 30 μL of kinase detection reagent was added per well and the plate was spun briefly, sealed and incubated for 45-60 minutes at 22° C. in the dark. Luminescence was read using the Envision (250 ms integration). The IC50 and the % max inhibition were calculated for each inhibitor compound tested.

Sequence of recombinant human Myt1 (full length PKMYT1) (Q99640 whole entry): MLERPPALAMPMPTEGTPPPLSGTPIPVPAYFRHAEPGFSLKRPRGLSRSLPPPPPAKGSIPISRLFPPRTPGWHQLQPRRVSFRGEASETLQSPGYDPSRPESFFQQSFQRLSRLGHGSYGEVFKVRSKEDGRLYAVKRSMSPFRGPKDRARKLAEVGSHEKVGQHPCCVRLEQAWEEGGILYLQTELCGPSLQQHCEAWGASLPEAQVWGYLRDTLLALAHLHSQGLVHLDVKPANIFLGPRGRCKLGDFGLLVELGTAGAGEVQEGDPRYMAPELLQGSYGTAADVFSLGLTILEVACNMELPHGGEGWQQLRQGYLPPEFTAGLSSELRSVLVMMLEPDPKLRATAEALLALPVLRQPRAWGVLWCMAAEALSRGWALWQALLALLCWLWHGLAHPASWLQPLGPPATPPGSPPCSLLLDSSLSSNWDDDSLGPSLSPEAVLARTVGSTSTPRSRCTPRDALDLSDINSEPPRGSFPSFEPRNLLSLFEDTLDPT

Row | IC50 [nM] | SMILES
1 | 43 | COCCCOc1ccc(-c2nc(C(N)=O)c(N)c(-c3c(C)ccc4[nH]ncc34)n2)cc1 [Compound 138]
2 | 52 | Cc1ccc(O)cc1-c1nc(-c2ccc(N)nc2)nc(C(N)=O)c1N [Compound 33]
3 | 120 | Cc1ccc2[nH]ncc2c1-c1nc(-c2ccc(OC3CC3)cc2)nc(C(N)=O)c1N [Compound 127]
4 | 81 | Cc1ccc(O)cc1-c1nc(-c2cnn(C)c2)nc(C(N)=O)c1N [Compound 34]
5 | 15 | Cc1ccc2[nH]ncc2c1-c1cc(-c2ccnc(N3CC[C@H](O)C3)n2)nc(C(N)=O)c1N [Compound 348]
6 | 55 | Cc1ccc2[nH]ncc2c1-c1cc(-c2cccc(O[C@@H](C)c3ncccn3)n2)nc(C(N)=O)c1N [Compound 253]
7 | 1110 | Cc1ccc2[nH]ncc2c1-c1nc(-c2cccc(C(=O)O)c2)nc(C(N)=O)c1N [Compound 150]
8 | 1160 | COc1ccc(COc2cccc(-c3cc(-c4c(C)ccc5[nH]ncc45)c(N)c(C(N)=O)n3)n2)cc1 [Compound 339]
9 | 141 | Cc1ccc2[nH]ncc2c1-c1cc(-c2cccc(N[C@@H](CO)c3ccccc3)n2)nc(C(N)=O)c1N [Compound 275]
10 | 770 | Cc1ccc2[nH]ncc2c1-c1cc(-c2ccnc(OC3COC3)n2)nc(C(N)=O)c1N [Compound 176]
11 | 266 | COCC(=O)c1ccccc1-c1nc(C(N)=O)c(N)c(-c2c(C)ccc3[nH]ncc23)n1 [Compound 793]
12 | > 2000 | Cc1ccc2[nH]ncc2c1-c1cc(C(N)=O)nc(-c2ccccc2)n1 [Compound 76, 6-(5-methyl-1H-indazol-4-yl)-2-phenylpyrimidine-4-carboxamide]
13 | 21 | Cc1nnc(COc2cccc(-c3cc(-c4c(C)ccc5[nH]ncc45)c(N)c(C(N)=O)n3)n2)o1 [Compound 318]
14 | 14 | Cc1ccc2[nH]ncc2c1-c1cc(-c2cccc(OC[C@H]3CCCN3)n2)nc(C(N)=O)c1N [Compound 374]
15 | 246 | Cc1ccc(O)cc1-c1nc(C(N)=O)c(N)c(-c2cc(O)ccc2C)n1 [Compound 12]
16 | 92 | Cc1ccc(O)cc1-c1nc(-c2ccn(C)c(=O)c2)nc(C(N)=O)c1N [Compound 36]
17 | 14 | CSC(C)COc1cccc(-c2cc(-c3c(C)ccc4[nH]ncc34)c(N)c(C(N)=O)n2)n1 (stereo not shown) [Compound 375]
18 | 100 | Cc1ccc2[nH]ncc2c1-c1cc(-c2ccnc(OCc3noc(C4CCCC4)n3)n2)nc(C(N)=O)c1N [Compound 300]
19 | 175 | Cc1ccc(O)cc1-c1nc(-c2cc(F)cc(C(F)(F)F)c2)nc(C(N)=O)c1N [Compound 32]
20 | 73 | Cc1ccc2n[nH]cc2c1-c1cc(-c2cccc(=O)[nH]2)nc(C(N)=O)c1N [Compound 243]
21 | 18 | Cc1ccc2[nH]ncc2c1-c1cc(-c2ccnc(N3CC[C@@H](O)C3)n2)nc(C(N)=O)c1N [Compound 347]
22 | > 5000 | Cc1n[nH]c2cccc(-c3nc(-c4ccccc4)nc(C(N)=O)c3N)c12 [Compound 116]

Row | IC50 [nM] | SMILES
23 | > 50 | Cc1ccc(O)cc1-c1c(Cl)c(C(N)=O)nc2ccccc12 [Compound 73, 3-chloro-4-(5-hydroxy-2-methylphenyl)quinoline-2-carboxamide]
24 | 720 | Cc1c(-c2ccccn2)nc(C(N)=O)c(N)c1-c1cccc2[nH]ncc12 [Compound 246, 5-amino-4-(1H-indazol-4-yl)-3-methyl-[2,2′-bipyridine]-6-carboxamide]
25 | 1110 | Cc1ccc2[nH]ncc2c1-c1nc(-c2ccc(Oc3ccccc3)cc2)nc(C(N)=O)c1N [Compound 113]
26 | 640 | Cc1ccc2[nH]ncc2c1-c1cc(-c2cccc(OC[C@H]3CCCN3)n2)nc(C(N)=O)c1N (atropisomer, axis not shown) [Compound 387]
27 | 71 | Cc1ccc2[nH]ncc2c1-c1cc(-c2cccc(OCc3ccn(C)n3)n2)nc(C(N)=O)c1N [Compound 248]
28 | 13 | Cc1ccc2[nH]ncc2c1-c1cc(-c2cccc(N3CCOCC3)n2)nc(C(N)=O)c1N [Compound 217]
29 | 48 | CNc1cccc(-c2nc(C(N)=O)c(N)c(-c3c(C)ccc4[nH]ncc34)n2)c1 [Compound 140]
30 | 11 | Cc1ccnc(-c2cc(-c3c(C)ccc4[nH]ncc34)c(N)c(C(N)=O)n2)c1 (atropisomer, axis not shown) [Compound 280]
31 | 167 | Cc1ccc(O)cc1-c1nc(-c2ccn(C)n2)nc(C(N)=O)c1N [Compound 35]
32 | 1740 | CO[C@@H](COc1nccc(-c2cc(-c3c(C)ccc4[nH]ncc34)c(N)c(C(N)=O)n2)n1)c1ccccc1 (atropisomer, axis not shown) [Compound 308]
33 | 198 | Cc1ccc2[nH]ncc2c1-c1nc(-c2ccc(C(=O)O)s2)nc(C(N)=O)c1N [Compound 162]
34 | > 2000 | Cc1ccc2[nH]ncc2c1-c1cc(-c2cccc(OCc3c(F)c(F)c(F)c(F)c3F)n2)nc(C(N)=O)c1N [Compound 258]
35 | 81 | Cc1ccc2[nH]ncc2c1-c1nc(-c2cccc(CO)c2)nc(C(N)=O)c1N [Compound 305]
36 | 9 | Cc1ccc2[nH]ncc2c1-c1cc(-c2ccnc(OCCc3nccn3C)n2)nc(C(N)=O)c1N [Compound 264]
37 | 231 | Cc1ccc2[nH]ncc2c1-c1cc(-c2ccnc(OC3CCOCC3)n2)nc(C(N)=O)c1N (atropisomer, axis not shown) [Compound 231]
38 | 161 | Cc1ccc2[nH]ncc2c1-c1cc(-c2csc(C(C)(C)O)n2)nc(C(N)=O)c1N [Compound 225]
39 | 21 | Cc1ccc2[nH]ncc2c1-c1nc(-c2ccc(C#N)s2)nc(C(N)=O)c1N [Compound 158]
40 | 387 | Cc1ccc2[nH]ncc2c1-c1cc(-c2ccccn2)nc(C(N)=O)c1N [Compound 96]
41 | 1940 | Cc1ccc2[nH]ncc2c1-c1cc(-c2cncs2)nc(C(N)=O)c1N [Compound 98]
42 | 72 | COc1cnc(COc2cccc(-c3cc(-c4c(C)ccc5[nH]ncc45)c(N)c(C(N)=O)n3)n2)nc1 [Compound 255]
43 | 19 | Cc1ccc2[nH]ncc2c1-c1cc(-c2ccnc(OC[C@H]3CCC(=O)N3)n2)nc(C(N)=O)c1N [Compound 337]
44 | 330 | CCC(COc1cccc(-c2cc(-c3c(C)ccc4[nH]ncc34)c(N)c(C(N)=O)n2)c1)OC (stereo not shown) [Compound 360]

Row | IC50 [nM] | SMILES
45 | 18 | Cc1ccc(O)cc1-c1nc(-c2ccncc2)nc(C(N)=O)c1N [Compound 24]
46 | 191 | Cc1ccc2[nH]ncc2c1-c1cc(-c2ccnc(OC3CN(C(=O)OC(C)(C)C)C3)n2)nc(C(N)=O)c1N [Compound 193]
47 | 23 | Cc1ccc2[nH]ncc2c1-c1nc(-c2ccc3cn[nH]c3c2)nc(C(N)=O)c1N [Compound 129]
48 | 195 | Cc1ccc2[nH]ncc2c1-c1cc(Nc2ccccc2)nc(C(N)=O)c1N [Compound 335, 3-amino-4-(5-methyl-1H-indazol-4-yl)-6-(phenylamino)picolinamide]
49 | 57 | Cc1ccc2[nH]ncc2c1-c1nc(-c2ccc(N(C)C)cc2)nc(C(N)=O)c1N [Compound 145]
50 | > 50000 | Cc1ccc(O)cc1-c1cc2cccnc2c(C(N)=O)c1N [Compound 1, 7-amino-6-(5-hydroxy-2-methylphenyl)quinoline-8-carboxamide]
51 | 41 | COCCOc1cccc(-c2nc(C(N)=O)c(N)c(-c3c(C)ccc4[nH]ncc34)n2)c1 [Compound 286]
52 | 17 | Cc1ccc2[nH]ncc2c1-c1nc(-c2cccc(OCC(=O)O)c2)nc(C(N)=O)c1N [Compound 294]
53 | 643 | Cc1ccc2[nH]ncc2c1-c1cc(-c2cccc(OC[C@H]3CCCO3)n2)nc(C(N)=O)c1N (atropisomer, axis not shown) [Compound 388]
54 | 1090 | Cc1ccc2[nH]ncc2c1-c1cc(-c2cccc(OCCN3CCCC3)n2)nc(C(N)=O)c1N (atropisomer, axis not shown) [Compound 271]
55 | 4 | Cc1ccc2[nH]ncc2c1-c1cc(-c2ccnc(N[C@H]3CC[C@H](O)CC3)n2)nc(C(N)=O)c1N [Compound 369]
56 | 5 | Cc1ccc2[nH]ncc2c1-c1nc(-c2cccc3nnsc23)nc(C(N)=O)c1N [Compound 390]
57 | 1510 | CCCCc1cc(-c2c(C)ccc3[nH]ncc23)c(N)c(C(N)=O)n1 [Compound 216, 3-amino-6-butyl-4-(5-methyl-1H-indazol-4-yl)picolinamide]
58 | 13 | Cc1ccc2[nH]ncc2c1-c1cc(-c2ccnc(N3CCCC(CO)C3)n2)nc(C(N)=O)c1N (stereo not shown) [Compound 346]
59 | 51 | Cc1ccc2[nH]ncc2c1-c1nc(-c2ccc(C3(C#N)CC3)cc2)nc(C(N)=O)c1N [Compound 125]
60 | 14 | Cc1ccc2[nH]ncc2c1-c1cc(-c2ccnc(OCCn3cccn3)n2)nc(C(N)=O)c1N [Compound 329]
61 | 107 | Cc1ccc2[nH]ncc2c1-c1cc(-c2cccc(Oc3ccccn3)n2)nc(C(N)=O)c1N [Compound 202]
62 | 14 | Cc1ccc2[nH]ncc2c1-c1cc(-c2ccnc(OCCc3cnccn3)n2)nc(C(N)=O)c1N [Compound 310]
63 | 13 | Cc1ccc2[nH]ncc2c1-c1nc(-c2cccc(-n3cccn3)c2)nc(C(N)=O)c1N [Compound 282]
64 | 16 | Cc1ccc2[nH]ncc2c1-c1cc(-c2ccnc(NCC3(O)CC3)n2)nc(C(N)=O)c1N [Compound 341]
